Data as given in PubChem BioAssay (NCI).
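1) Cells in 96-well plates. 2) Compound, 48 h, 5 concentrations. 3) Linear interpolation between surrounding doses. 4) Unreached endpoint = highest concentration. TGI denotes the concentration required for complete inhibition of growth.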

Legend:
Assay in all cases: NCI anticancer screen, dose series, 48 h
SK-MEL-2 melanoma = tested on: SK-MEL-2 melanoma
EKVX NSCLC = tested on: EKVX NSCLC
NCI-H226 lung = tested on: NCI-H226 lung
IGROV1 ovarian = tested on: IGROV1 ovarian
RPMI-8226 leukemia = tested on: RPMI-8226 leukemia
MDA-N = tested on: MDA-N
A549 NSCLC = tested on: A549 NSCLC
CAKI-1 renal = tested on: CAKI-1 renal
SF-295 CNS = tested on: SF-295 CNS
786-0 renal = tested on: 786-0 renal
M14 melanoma = tested on: M14 melanoma
OVCAR-5 ovarian = tested on: OVCAR-5 ovarian
TK-10 renal = tested on: TK-10 renal
OVCAR-8 ovarian = tested on: OVCAR-8 ovarian
T-47D breast = tested on: T-47D breast
A498 renal = tested on: A498 renal
K-562 leukemia = tested on: K-562 leukemia
DU-145 prostate = tested on: DU-145 prostate
ACHN renal = tested on: ACHN renal
HCT-116 colon = tested on: HCT-116 colon
MDA-MB-435 = tested on: MDA-MB-435
COLO 205 colon = tested on: COLO 205 colon
CCRF-CEM leukemia = tested on: CCRF-CEM leukemia
SK-MEL-5 melanoma = tested on: SK-MEL-5 melanoma
SF-268 CNS = tested on: SF-268 CNS
SNB-19 CNS = tested on: SNB-19 CNS
U251 CNS = tested on: U251 CNS
SNB-75 CNS = tested on: SNB-75 CNS
MCF7 breast = tested on: MCF7 breast
MALME-3M melanoma = tested on: MALME-3M melanoma
OVCAR-4 ovarian = tested on: OVCAR-4 ovarian
NCI/ADR-RES ovarian = tested on: NCI/ADR-RES ovarian
MOLT-4 leukemia = tested on: MOLT-4 leukemia
NCI-H522 lung = tested on: NCI-H522 lung
HOP-62 NSCLC = tested on: HOP-62 NSCLC
PC-3 prostate = tested on: PC-3 prostate
UO-31 renal = tested on: UO-31 renal
HS 578T breast = tested on: HS 578T breast
KM12 colon = tested on: KM12 colon
SK-OV-3 ovarian = tested on: SK-OV-3 ovarian
BT-549 breast = tested on: BT-549 breast
HCT-15 colon = tested on: HCT-15 colon
SF-539 CNS = tested on: SF-539 CNS
UACC-257 melanoma = tested on: UACC-257 melanoma
RXF 393 renal = tested on: RXF 393 renal
NCI-H460 lung = tested on: NCI-H460 lung
HT29 colon = tested on: HT29 colon
NCI-H23 lung = tested on: NCI-H23 lung
MDA-MB-231 breast = tested on: MDA-MB-231 breast
SN12C renal = tested on: SN12C renal
HCC-2998 colon = tested on: HCC-2998 colon
SR leukemia = tested on: SR leukemia
UACC-62 melanoma = tested on: UACC-62 melanoma
OVCAR-3 ovarian = tested on: OVCAR-3 ovarian
SK-MEL-28 melanoma = tested on: SK-MEL-28 melanoma
LOX IMVI melanoma = tested on: LOX IMVI melanoma
SW-620 colon = tested on: SW-620 colon
HOP-92 NSCLC = tested on: HOP-92 NSCLC

Question: `Cc1cc(N(CCC#N)CCC#N)ccc1/C(N=Nc1ccc(C(=O)O)cc1)=N\NC(=O)c1ccccc1` was tested. Which TGI (SK-MEL-2 melanoma) did it give?
Answer: > 100 µM

Question: And the TGI (EKVX NSCLC)?
Answer: > 100 µM

Question: And the TGI (NCI-H226 lung)?
Answer: > 100 µM

Question: What about the TGI (IGROV1 ovarian) of the same molecule?
Answer: > 100 µM

Question: And the TGI (RPMI-8226 leukemia)?
Answer: > 100 µM

Question: And the TGI (MDA-N)?
Answer: > 100 µM

Question: What about the TGI (A549 NSCLC) of the same molecule?
Answer: > 100 µM

Question: And the TGI (CAKI-1 renal)?
Answer: > 100 µM

Question: What about the TGI (SF-295 CNS) of the same molecule?
Answer: > 100 µM

Question: What about the TGI (786-0 renal) of the same molecule?
Answer: > 100 µM

Question: And the TGI (M14 melanoma)?
Answer: > 100 µM

Question: What about the TGI (OVCAR-5 ovarian) of the same molecule?
Answer: > 100 µM

Question: What about the TGI (TK-10 renal) of the same molecule?
Answer: > 100 µM

Question: And the TGI (OVCAR-8 ovarian)?
Answer: > 100 µM

Question: And the TGI (T-47D breast)?
Answer: > 100 µM

Question: And the TGI (A498 renal)?
Answer: 84.4 µM

Question: What about the TGI (K-562 leukemia) of the same molecule?
Answer: > 100 µM

Question: And the TGI (DU-145 prostate)?
Answer: > 100 µM

Question: And the TGI (ACHN renal)?
Answer: > 100 µM

Question: And the TGI (HCT-116 colon)?
Answer: > 100 µM

Question: What about the TGI (MDA-MB-435) of the same molecule?
Answer: > 100 µM

Question: What about the TGI (COLO 205 colon) of the same molecule?
Answer: > 100 µM

Question: What about the TGI (CCRF-CEM leukemia) of the same molecule?
Answer: > 100 µM

Question: And the TGI (SK-MEL-5 melanoma)?
Answer: > 100 µM

Question: And the TGI (SF-268 CNS)?
Answer: > 100 µM

Question: And the TGI (SNB-19 CNS)?
Answer: > 100 µM

Question: And the TGI (U251 CNS)?
Answer: > 100 µM

Question: What about the TGI (SNB-75 CNS) of the same molecule?
Answer: > 100 µM

Question: And the TGI (MCF7 breast)?
Answer: > 100 µM

Question: And the TGI (MALME-3M melanoma)?
Answer: > 100 µM

Question: And the TGI (OVCAR-4 ovarian)?
Answer: > 100 µM

Question: What about the TGI (NCI/ADR-RES ovarian) of the same molecule?
Answer: > 100 µM

Question: And the TGI (MOLT-4 leukemia)?
Answer: > 100 µM

Question: And the TGI (NCI-H522 lung)?
Answer: 38.5 µM

Question: And the TGI (HOP-62 NSCLC)?
Answer: > 100 µM

Question: And the TGI (PC-3 prostate)?
Answer: > 100 µM

Question: And the TGI (UO-31 renal)?
Answer: > 100 µM

Question: What about the TGI (HS 578T breast) of the same molecule?
Answer: 55.5 µM

Question: What about the TGI (KM12 colon) of the same molecule?
Answer: > 100 µM

Question: And the TGI (SK-OV-3 ovarian)?
Answer: > 100 µM

Question: What about the TGI (BT-549 breast) of the same molecule?
Answer: > 100 µM

Question: And the TGI (HCT-15 colon)?
Answer: > 100 µM

Question: And the TGI (SF-539 CNS)?
Answer: 57 µM

Question: And the TGI (UACC-257 melanoma)?
Answer: > 100 µM

Question: And the TGI (RXF 393 renal)?
Answer: > 100 µM

Question: What about the TGI (NCI-H460 lung) of the same molecule?
Answer: > 100 µM

Question: And the TGI (HT29 colon)?
Answer: 41.2 µM

Question: What about the TGI (NCI-H23 lung) of the same molecule?
Answer: > 100 µM

Question: And the TGI (MDA-MB-231 breast)?
Answer: > 100 µM

Question: And the TGI (SN12C renal)?
Answer: > 100 µM

Question: What about the TGI (HCC-2998 colon) of the same molecule?
Answer: > 100 µM

Question: What about the TGI (SR leukemia) of the same molecule?
Answer: > 100 µM

Question: And the TGI (UACC-62 melanoma)?
Answer: > 100 µM

Question: With `NS(=O)(=O)c1nnc(NS(=O)(=O)c2cccc3cccnc23)s1` as the molecule, how does the TGI (SK-MEL-2 melanoma) read?
Answer: > 100 µM

Question: What about the TGI (EKVX NSCLC) of the same molecule?
Answer: > 100 µM

Question: What about the TGI (NCI-H226 lung) of the same molecule?
Answer: > 100 µM

Question: What about the TGI (OVCAR-3 ovarian) of the same molecule?
Answer: > 100 µM

Question: And the TGI (RPMI-8226 leukemia)?
Answer: > 100 µM

Question: What about the TGI (MDA-N) of the same molecule?
Answer: > 100 µM

Question: And the TGI (A549 NSCLC)?
Answer: > 100 µM

Question: And the TGI (CAKI-1 renal)?
Answer: > 100 µM

Question: And the TGI (SF-295 CNS)?
Answer: > 100 µM

Question: What about the TGI (786-0 renal) of the same molecule?
Answer: > 100 µM

Question: And the TGI (M14 melanoma)?
Answer: > 100 µM

Question: And the TGI (OVCAR-5 ovarian)?
Answer: > 100 µM

Question: And the TGI (TK-10 renal)?
Answer: > 100 µM

Question: What about the TGI (OVCAR-8 ovarian) of the same molecule?
Answer: > 100 µM

Question: And the TGI (T-47D breast)?
Answer: > 100 µM

Question: And the TGI (A498 renal)?
Answer: > 100 µM

Question: What about the TGI (K-562 leukemia) of the same molecule?
Answer: > 100 µM

Question: What about the TGI (DU-145 prostate) of the same molecule?
Answer: > 100 µM

Question: And the TGI (ACHN renal)?
Answer: > 100 µM

Question: And the TGI (HCT-116 colon)?
Answer: > 100 µM

Question: What about the TGI (MDA-MB-435) of the same molecule?
Answer: > 100 µM

Question: And the TGI (COLO 205 colon)?
Answer: > 100 µM

Question: What about the TGI (CCRF-CEM leukemia) of the same molecule?
Answer: > 100 µM

Question: And the TGI (SK-MEL-5 melanoma)?
Answer: > 100 µM

Question: And the TGI (SF-268 CNS)?
Answer: > 100 µM

Question: What about the TGI (SNB-19 CNS) of the same molecule?
Answer: > 100 µM

Question: What about the TGI (U251 CNS) of the same molecule?
Answer: > 100 µM

Question: What about the TGI (SK-MEL-28 melanoma) of the same molecule?
Answer: > 100 µM

Question: And the TGI (LOX IMVI melanoma)?
Answer: > 100 µM

Question: And the TGI (MCF7 breast)?
Answer: > 100 µM

Question: What about the TGI (OVCAR-4 ovarian) of the same molecule?
Answer: > 100 µM

Question: What about the TGI (NCI/ADR-RES ovarian) of the same molecule?
Answer: > 100 µM

Question: What about the TGI (MOLT-4 leukemia) of the same molecule?
Answer: > 100 µM

Question: What about the TGI (HOP-62 NSCLC) of the same molecule?
Answer: > 100 µM

Question: What about the TGI (UO-31 renal) of the same molecule?
Answer: > 100 µM

Question: And the TGI (HS 578T breast)?
Answer: > 100 µM

Question: And the TGI (KM12 colon)?
Answer: > 100 µM

Question: What about the TGI (SK-OV-3 ovarian) of the same molecule?
Answer: > 100 µM

Question: What about the TGI (BT-549 breast) of the same molecule?
Answer: > 100 µM

Question: What about the TGI (SW-620 colon) of the same molecule?
Answer: > 100 µM

Question: What about the TGI (HCT-15 colon) of the same molecule?
Answer: > 100 µM

Question: What about the TGI (SF-539 CNS) of the same molecule?
Answer: > 100 µM

Question: What about the TGI (UACC-257 melanoma) of the same molecule?
Answer: > 100 µM

Question: What about the TGI (RXF 393 renal) of the same molecule?
Answer: > 100 µM

Question: What about the TGI (NCI-H460 lung) of the same molecule?
Answer: > 100 µM

Question: What about the TGI (HOP-92 NSCLC) of the same molecule?
Answer: > 100 µM

Question: And the TGI (NCI-H23 lung)?
Answer: > 100 µM

Question: What about the TGI (MDA-MB-231 breast) of the same molecule?
Answer: > 100 µM

Question: And the TGI (SN12C renal)?
Answer: > 100 µM

Question: And the TGI (HCC-2998 colon)?
Answer: > 100 µM

Question: What about the TGI (SR leukemia) of the same molecule?
Answer: > 100 µM

Question: And the TGI (UACC-62 melanoma)?
Answer: > 100 µM
